Experimental data reported in the CheMixHub viscosity set.
± gives the uncertainty stated by the source.

Assay: xn = mol fraction of the nth substance listed

SMILES: NC=O + CO
- viscosity (298.15 K, 100 kPa, x1 = 0.04242): 0.594 ± 0.013 mPa·s
- viscosity (298.15 K, 100 kPa, x1 = 0.1098): 0.672 ± 0.014 mPa·s
- viscosity (298.15 K, 100 kPa, x1 = 0.1552): 0.728 ± 0.016 mPa·s
- viscosity (298.15 K, 100 kPa, x1 = 0.1966): 0.784 ± 0.017 mPa·s
- viscosity (298.15 K, 100 kPa, x1 = 0.2342): 0.843 ± 0.018 mPa·s
- viscosity (298.15 K, 100 kPa, x1 = 0.3571): 1.06 ± 0.02 mPa·s
- viscosity (298.15 K, 100 kPa, x1 = 0.4211): 1.2 ± 0.03 mPa·s
- viscosity (298.15 K, 100 kPa, x1 = 0.4775): 1.33 ± 0.03 mPa·s
- viscosity (298.15 K, 100 kPa, x1 = 0.5097): 1.42 ± 0.03 mPa·s
- viscosity (298.15 K, 100 kPa, x1 = 0.5776): 1.6 ± 0.03 mPa·s
- viscosity (298.15 K, 100 kPa, x1 = 0.6744): 1.9 ± 0.04 mPa·s
- viscosity (298.15 K, 100 kPa, x1 = 0.7135): 2.03 ± 0.04 mPa·s
- viscosity (298.15 K, 100 kPa, x1 = 0.8191): 2.45 ± 0.05 mPa·s
- viscosity (298.15 K, 100 kPa, x1 = 0.8522): 2.6 ± 0.06 mPa·s
- viscosity (298.15 K, 100 kPa, x1 = 0.9099): 2.86 ± 0.06 mPa·s
- viscosity (298.15 K, 101 kPa, x1 = 0.1): 0.746 ± 0.008 mPa·s
- viscosity (298.15 K, 101 kPa, x1 = 0.2): 0.861 ± 0.012 mPa·s
- viscosity (298.15 K, 101 kPa, x1 = 0.3): 1.055 ± 0.019 mPa·s
- viscosity (298.15 K, 101 kPa, x1 = 0.3966): 1.247 ± 0.026 mPa·s
- viscosity (298.15 K, 101 kPa, x1 = 0.4978): 1.484 ± 0.037 mPa·s
- viscosity (298.15 K, 101 kPa, x1 = 0.6): 1.749 ± 0.049 mPa·s
- viscosity (298.15 K, 101 kPa, x1 = 0.7): 2.067 ± 0.066 mPa·s
- viscosity (298.15 K, 101 kPa, x1 = 0.7988): 2.431 ± 0.086 mPa·s
- viscosity (298.15 K, 101 kPa, x1 = 0.902): 2.874 ± 0.11 mPa·s
- viscosity (303.15 K, 101.3 kPa, x1 = 0.0714): 0.55 ± 0.05 mPa·s
- viscosity (303.15 K, 101.3 kPa, x1 = 0.1586): 0.63 ± 0.05 mPa·s
- viscosity (303.15 K, 101.3 kPa, x1 = 0.2422): 0.74 ± 0.05 mPa·s
- viscosity (303.15 K, 101.3 kPa, x1 = 0.32): 0.85 ± 0.05 mPa·s
- viscosity (303.15 K, 101.3 kPa, x1 = 0.3836): 0.95 ± 0.05 mPa·s
- viscosity (303.15 K, 101.3 kPa, x1 = 0.5273): 1.2 ± 0.1 mPa·s
- viscosity (303.15 K, 101.3 kPa, x1 = 0.5975): 1.4 ± 0.1 mPa·s
- viscosity (303.15 K, 101.3 kPa, x1 = 0.6822): 1.6 ± 0.1 mPa·s
- viscosity (303.15 K, 101.3 kPa, x1 = 0.7619): 1.8 ± 0.1 mPa·s
- viscosity (303.15 K, 101.3 kPa, x1 = 0.8279): 2 ± 0.1 mPa·s
- viscosity (303.15 K, 101.3 kPa, x1 = 0.917): 2.3 ± 0.1 mPa·s
- viscosity (308.15 K, 101.3 kPa, x1 = 0.0714): 0.51 ± 0.05 mPa·s
- viscosity (308.15 K, 101.3 kPa, x1 = 0.1586): 0.59 ± 0.05 mPa·s
- viscosity (308.15 K, 101.3 kPa, x1 = 0.2422): 0.68 ± 0.05 mPa·s
- viscosity (308.15 K, 101.3 kPa, x1 = 0.32): 0.78 ± 0.05 mPa·s
- viscosity (308.15 K, 101.3 kPa, x1 = 0.3836): 0.87 ± 0.05 mPa·s
- viscosity (308.15 K, 101.3 kPa, x1 = 0.5273): 1.1 ± 0.05 mPa·s
- viscosity (308.15 K, 101.3 kPa, x1 = 0.5975): 1.2 ± 0.1 mPa·s
- viscosity (308.15 K, 101.3 kPa, x1 = 0.6822): 1.4 ± 0.1 mPa·s
- viscosity (308.15 K, 101.3 kPa, x1 = 0.7619): 1.6 ± 0.1 mPa·s
- viscosity (308.15 K, 101.3 kPa, x1 = 0.8279): 1.8 ± 0.1 mPa·s
- viscosity (308.15 K, 101.3 kPa, x1 = 0.917): 2.1 ± 0.1 mPa·s
- viscosity (313.15 K, 101 kPa, x1 = 0.1): 0.584 ± 0.004 mPa·s
- viscosity (313.15 K, 101 kPa, x1 = 0.2): 0.685 ± 0.006 mPa·s
- viscosity (313.15 K, 101 kPa, x1 = 0.3): 0.818 ± 0.01 mPa·s
- viscosity (313.15 K, 101 kPa, x1 = 0.3966): 0.995 ± 0.016 mPa·s
- viscosity (313.15 K, 101 kPa, x1 = 0.4978): 1.116 ± 0.021 mPa·s
- viscosity (313.15 K, 101 kPa, x1 = 0.6): 1.307 ± 0.029 mPa·s
- viscosity (313.15 K, 101 kPa, x1 = 0.7): 1.538 ± 0.039 mPa·s
- viscosity (313.15 K, 101 kPa, x1 = 0.7988): 1.78 ± 0.051 mPa·s
- viscosity (313.15 K, 101 kPa, x1 = 0.902): 2.09 ± 0.067 mPa·s
- viscosity (313.15 K, 101.3 kPa, x1 = 0.0714): 0.48 ± 0.05 mPa·s
- viscosity (313.15 K, 101.3 kPa, x1 = 0.1586): 0.54 ± 0.05 mPa·s
- viscosity (313.15 K, 101.3 kPa, x1 = 0.2422): 0.63 ± 0.05 mPa·s
- viscosity (313.15 K, 101.3 kPa, x1 = 0.32): 0.72 ± 0.05 mPa·s
- viscosity (313.15 K, 101.3 kPa, x1 = 0.3836): 0.8 ± 0.05 mPa·s
- viscosity (313.15 K, 101.3 kPa, x1 = 0.5273): 1.02 ± 0.05 mPa·s
- viscosity (313.15 K, 101.3 kPa, x1 = 0.5975): 1.1 ± 0.1 mPa·s
- viscosity (313.15 K, 101.3 kPa, x1 = 0.6822): 1.3 ± 0.1 mPa·s
- viscosity (313.15 K, 101.3 kPa, x1 = 0.7619): 1.4 ± 0.1 mPa·s
- viscosity (313.15 K, 101.3 kPa, x1 = 0.8279): 1.6 ± 0.1 mPa·s
- viscosity (313.15 K, 101.3 kPa, x1 = 0.917): 1.9 ± 0.1 mPa·s
- viscosity (318.15 K, 101.3 kPa, x1 = 0.0714): 0.46 ± 0.05 mPa·s
- viscosity (318.15 K, 101.3 kPa, x1 = 0.1586): 0.51 ± 0.05 mPa·s
- viscosity (318.15 K, 101.3 kPa, x1 = 0.2422): 0.58 ± 0.05 mPa·s
- viscosity (318.15 K, 101.3 kPa, x1 = 0.32): 0.67 ± 0.05 mPa·s
- viscosity (318.15 K, 101.3 kPa, x1 = 0.3836): 0.73 ± 0.05 mPa·s
- viscosity (318.15 K, 101.3 kPa, x1 = 0.5273): 0.92 ± 0.05 mPa·s
- viscosity (318.15 K, 101.3 kPa, x1 = 0.5975): 1.01 ± 0.05 mPa·s
- viscosity (318.15 K, 101.3 kPa, x1 = 0.6822): 1.1 ± 0.1 mPa·s
- viscosity (318.15 K, 101.3 kPa, x1 = 0.7619): 1.3 ± 0.1 mPa·s
- viscosity (318.15 K, 101.3 kPa, x1 = 0.8279): 1.4 ± 0.1 mPa·s
- viscosity (318.15 K, 101.3 kPa, x1 = 0.917): 1.6 ± 0.1 mPa·s
- viscosity (323.15 K, 101.3 kPa, x1 = 0.0714): 0.42 ± 0.05 mPa·s
- viscosity (323.15 K, 101.3 kPa, x1 = 0.1586): 0.47 ± 0.05 mPa·s
- viscosity (323.15 K, 101.3 kPa, x1 = 0.2422): 0.54 ± 0.05 mPa·s
- viscosity (323.15 K, 101.3 kPa, x1 = 0.32): 0.6 ± 0.05 mPa·s
- viscosity (323.15 K, 101.3 kPa, x1 = 0.3836): 0.66 ± 0.05 mPa·s
- viscosity (323.15 K, 101.3 kPa, x1 = 0.5273): 0.8 ± 0.05 mPa·s
- viscosity (323.15 K, 101.3 kPa, x1 = 0.5975): 0.86 ± 0.05 mPa·s
- viscosity (323.15 K, 101.3 kPa, x1 = 0.6822): 0.96 ± 0.05 mPa·s
- viscosity (323.15 K, 101.3 kPa, x1 = 0.7619): 1.07 ± 0.05 mPa·s
- viscosity (323.15 K, 101.3 kPa, x1 = 0.8279): 1.2 ± 0.1 mPa·s
- viscosity (323.15 K, 101.3 kPa, x1 = 0.917): 1.3 ± 0.1 mPa·s
